Experimental data: publication PMC8198750, “Synthesis of Novel Halogenated Heterocycles Based on o-Phenylenediamine and Their Interactions with the Catalytic Subunit of Protein Kinase CK2” (Molecules, 2021)
Where two headings read alike, the source gives them in different places.

Columns and labels:
[1] = system: epidermoid carcinoma A-431; test: MTT cell viability assay, A-431; assay type: cell-based; settings: Homo sapiens, 72 h
From the text: (§1) The following human cell lines were used in this study: (i) epidermoid carcinoma A-431 (ATCC® CRL-1555), (ii) colorectal carcinoma HCT116 (ATCC® CCL-247), (iii) colorectal carcinoma HCT116p53^−/−, and (iv) normal fibroblasts BJ (ATCC® CRL-2522). The HCT116p53^−/− cell line was a kind gift from professor Bert Vogelstein (John Hopkin’s University, Baltimore, MD, USA). The remaining cell lines were purchased from ATCC (Manassas, VA, USA) or Sigma Aldrich by Merck (Darmstadt, Germany).
(§2) Cells were cultured in Dulbecco’s modified Eagle’s or Roswell Park Memorial Institute (RPMI)-1640 medium supplemented with 10% or 15% fetal bovine serum (Gibco by Thermo Fisher Scientific, Waltham, MA, USA) under standard culture conditions (37 °C, 5% CO2) in a humidified incubator with atmospheric oxygen.
(§3) The viability of cells was assayed by measuring the conversion of MTT (3-(4,5-dimethylthiazol-2-yl)-2,5-diphenyltetrazolium bromide) to the formazan (the rate of this reaction is proportional to the number of surviving cells). Cells were seeded in a 96-well plate at a density of 1500–2500 cells per well, 24 h before treatment. Treatment with tested compounds and cisplatin (0.25–160 µM) was performed for 72 h. MTT stock solution (Sigma-Aldrich) was added at the final concentration 0.5 mg/mL. After 2 h of incubation at 37 °C, water-insoluble formazan was dissolved in a lysis buffer containing 20% SDS, 50% DMF, 2.5% hydrochloric acid, and 2.5% acetic acid. Optical densities were measured at 570 nm using a scanning multi-well spectrophotometer ([…] Detection Platform; Beckman Coulter, Brea, CA, USA).

hCK2α [2] = biological target: T1, hCK2α (Homo sapiens, UniProt P68400); test: Inhibitory activity against human CK2α (ADP-Glo kinase assay); assay type: biochemical; settings: inhibitor 1 nM–1 mM, triplicate
T1 construct: made in house
Procedure: The inhibitory effect of 8 selected compounds was monitored based on the luminescence measured with the SpectraMax iD3 Multi-Mode Microplate Reader (Molecular Devices, San Jose, CA, USA), using the previously described method with the aid of ADP-Glo kinase assay (Promega, Walldorf, Germany). Inhibitor concentration varied in the range of 1 nM–1 mM (see Supplementary Figure S38). Each experiment was repeated in triplicate and IC50 values were further estimated globally using the sigmoidal dose-response equation implemented in Origin 9.4 package (www.originlab.com, upgraded 20.07.27).

[3] = system: colorectal carcinoma HCT116; test: MTT cell viability assay, HCT116; assay type: cell-based; settings: Homo sapiens, HCT-116, 72 h, read-out: IC50 HTC116
From the text: as §1, §2, §3

[4] = system: colorectal carcinoma HCT116p53−/−; test: MTT cell viability assay, HCT116p53−/−; assay type: cell-based; settings: Homo sapiens, 72 h
From the text: as §1, §2, §3

hCK2α [5] = biological target: T1, hCK2α; test: nanoDSF thermal shift assay (low-volume differential scanning fluorimetry); assay type: binding; settings: 10-fold excess of ligand (1:10 protein–ligand), 2.5 μM protein, relative to apo hCK2α, 2% DMSO, pH 8; read-out: ΔTm
Procedure: Binding affinities of the newly synthesized compounds towards hCK2α were assessed with the low-volume differential scanning fluorimetry (nanoDSF). The shift of the temperature of thermal denaturation in the presence of 10-fold excess of a particular ligand relative to the apo form of hCK2α (ΔTm) can be used as a semi-qualitative measure of the binding affinity or inhibitory activity.
hCK2α was expressed and purified according to the method described previously. Thermal stability of 1:10 protein–ligand complexes was monitored on Prometheus (Nanotemper Technologies, München, Germany) using PR-C002 Prometheus NT.48 Standard Capillaries using temperature ramp of 20 to 80 °C with 1 °C/min heating rate. Temperature-induced variation in ratio fluorescence intensity at 330 and 350 nm was globally analyzed using the procedure described before. All experiments were performed in 25 mM Tris–HCl (pH 8, 0.5 M NaCl) with 2% (v/v) DMSO. Protein was kept in constant 2.5 μM concentration.

[6] = RP-HPLC chromatographic hydrophobicity index; assay type: physicochemical; settings: C18, 2:1 methanol:20 mM aqueous ammonium formate pH 8; τ = (Tret − T0)/T0
Procedure: RP-HPLC method, a fast and efficient alternative for standard logD determination in octan-1-ol/water system, was used to assess the hydrophobicity of all synthesized compounds. This method has been successfully used in our laboratory for halogenated benzotriazole derivatives, including the evaluation of the effect of hydrophobicity on their binding to the catalytic subunit of protein kinase CK2 [24, 43].
Chromatographic hydrophobicity index (log(τ)) was determined with the reverse phase HPLC (RP-HPLC). Column: Nova-pak® C18 4 μm, 4.6 × 250 mm. Eluent: 2:1 methanol: 20 mM aqueous ammonium formate (pH = 8) (v/v). Flow: 0.7 mL/min. Detector wavelength: 280 nm. The individual retention times (Tret) were converted to a hydrophobicity scale according to the formula τ = (Tret − T0)/T0. where the retention time of unretained solvent (T0) was estimated to 300 s.

normal fibroblasts BJ = test: MTT cell viability assay, BJ; assay type: cell-based, human; settings: for IC50: Homo sapiens, Fibroblast, MTT, 72 h
From the text: as §1, §2, §3

CK2 = settings: cited from earlier work
[7] = system: phytohemagglutinin-stimulated normal human lymphocytes; parameters: method as in PMID 12660022; settings: cited from earlier work
[8] = system: PC-3 (prostate carcinoma); parameters: method as in PMID 12660022; settings: cited from earlier work
MCF-7 (breast carcinoma) = system: MCF-7 (breast carcinoma); parameters: method as in PMID 12660022; settings: cited from earlier work
[9] = system: A-431, HCT116, HCT116p53−/−, BJ; test: MTT cell viability, reference cell lines as a whole; assay type: cell-based; settings: Homo sapiens; viability tests, cell line not specified
From the text: as §1, §2
as §3, with “MTT stock solution (Sigma-Aldrich) was added at the final concentration 0.5 mg/mL. After 2 h of incubation at 37 °C, water-insoluble formazan was dissolved in a lysis buffer containing 20% SDS, 50% DMF, 2.5% hydrochloric acid, and 2.5% acetic acid.” left out

[10] = read-out: IC50 against CK2 / inhibitory activity

T1 sequence (P68400 whole entry): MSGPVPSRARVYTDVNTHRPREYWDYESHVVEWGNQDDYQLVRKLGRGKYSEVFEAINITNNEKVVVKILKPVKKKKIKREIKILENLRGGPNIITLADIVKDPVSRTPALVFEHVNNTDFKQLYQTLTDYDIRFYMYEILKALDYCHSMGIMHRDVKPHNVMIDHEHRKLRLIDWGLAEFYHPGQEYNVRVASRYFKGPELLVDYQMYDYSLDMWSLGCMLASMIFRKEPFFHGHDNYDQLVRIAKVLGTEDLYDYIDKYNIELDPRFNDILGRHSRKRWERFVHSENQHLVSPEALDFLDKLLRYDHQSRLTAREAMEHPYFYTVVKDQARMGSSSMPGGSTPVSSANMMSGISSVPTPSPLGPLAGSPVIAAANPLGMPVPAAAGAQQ

IC50 [1]	IC50 (hCK2α [2])	IC50 [3]	IC50 [4]	ΔTm at 25 µM (hCK2α [5])	log(τ) HPLC-derived hydrophobicity index [6]	SMILES	IC50 (normal fibroblasts BJ)	IC50 (CK2; [10])	IC80 [7]	IC80 [8]	IC80 (MCF-7 (breast carcinoma))	Ki (CK2)	IC50 (CK2; read-out: IC50 CK2)	selectivity index (normal fibroblasts BJ; relative to BJ fibroblasts)	IC50 [9]
45 ± 5 µM	> 1000 µM	21 ± 1 µM	28 ± 3 µM	1.9 ± 0.1 °C	0.010	OCc1nc2cc(Br)c(Br)cc2[nH]1 [Compound 4d, 5,6-dibromo-2-hydroxymethylo-1H-benzimidazole]	145 ± 15 µM	–	–	–	–	–	–	–	–
385 ± 82 µM	13 ± 4 µM	195 ± 35 µM	850 ± 300 µM	2.7 ± 0.1 °C	−0.174	Oc1nc2cc(Br)c(Br)cc2nc1O [Compound 7d]	16 ± 2 µM	–	–	–	–	–	–	–	–
–	–	–	–	–	–	FC(F)(F)c1nc2c(Br)c(Br)c(Br)cc2[nH]1 [4,5,6-tribrominated]	–	1.2 µM	–	–	–	–	–	–	–
–	–	–	–	–	–	FC(F)(F)c1nc2c(Br)c(Br)c(Br)c(Br)c2[nH]1 [tetrabrominated]	–	0.6 µM	–	–	–	–	–	–	–
39 ± 10 µM	25 ± 5 µM	20 ± 2 µM	23 ± 2 µM	3.7 ± 0.1 °C	0.088	OCc1nc2cc(I)c(I)cc2[nH]1 [Compound 4e, 5,6-diiodo-2-hydroxymethylo-1H-benzimidazole]	15 ± 2 µM	–	–	–	–	–	–	–	–
13 ± 2 µM	15 ± 3 µM	10 ± 2 µM	12 ± 2 µM	2.4 ± 0.1 °C	0.310	FC(F)(F)c1nc2cc(Br)c(Br)cc2[nH]1 [Compound 3d, 5,6-dibromo-2-trifluoromethylo-1H-benzimidazole]	55 ± 6 µM	28 µM	8.7 µM	< 3 µM	< 3 µM	–	–	–	–
–	13 ± 2 µM	–	–	2.4 ± 0.1 °C	0.082	O=c1[nH]c2cc(I)c(I)cc2[nH]1 [Compound 5e, 5,6-diiodo-1H-benzo[d]imidazol-2(3H)-one]	–	–	–	–	–	–	–	–	–
180 ± 40 µM	> 1000 µM	18 ± 3 µM	22 ± 3 µM	1.8 ± 0.1 °C	0.003	O=c1[nH]c2cc(Br)c(Br)cc2[nH]1 [Compound 5d, 5,6-dibromo-1H-benzo[d]imidazol-2(3H)-one]	40 ± 5 µM	–	–	–	–	–	–	–	–
–	–	–	–	–	–	O=c1[nH]c2c(Br)c(Br)c(Br)c(Br)c2[nH]1 [4,5,6,7-tetrabromo-1H-benzo[d]imidazol-2(3H)-one]	–	–	–	–	–	0.2 µM	0.39 µM	–	–
7 ± 1 µM	7 ± 4 µM	6 ± 1 µM	6 ± 1 µM	4.3 ± 0.1 °C	0.409	FC(F)(F)c1nc2cc(I)c(I)cc2[nH]1 [Compound 3e, 5,6-diiodo-2-trifluoromethylo-1H-benzimidazole]	55 ± 5 µM	–	–	–	–	–	–	~ 10	–
94 ± 14 µM	2 ± 1 µM	41 ± 4 µM	70 ± 10 µM	4.1 ± 0.1 °C	−0.117	Oc1nc2cc(I)c(I)cc2nc1O [Compound 7e]	128 ± 13 µM	–	–	–	–	–	–	–	~100 µM
